Measurements reported in paper PMC3433420 (PLoS ONE, 2012).
Values belong to the compound of their own block, whether it stands above or below them. Residues, ends and D or L forms follow the SMILES beside them.

Columns and labels:
SH2D2A SH2 domain = SH2D2A SH2 domain (Homo sapiens, UniProt Q9NP31); test: FP saturation binding assay
SH2D1A SH2 domain = biological target: T1, SH2D1A SH2 domain (Homo sapiens, UniProt O60880); test: FP saturation binding assay; settings: for KD range of recruitment of SH2D1A (SHD1A [sic]): FP saturation assay
T1 sequence (O60880 6-104 limits assumed): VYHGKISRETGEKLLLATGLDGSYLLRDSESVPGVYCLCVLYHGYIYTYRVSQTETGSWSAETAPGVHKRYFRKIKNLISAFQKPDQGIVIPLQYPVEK

[1] = biological target: T2, PIK3R3-NC tandem SH2 domains (Homo sapiens, UniProt Q92569); test: FP saturation binding assay; settings: Protein PIK3R3-NC; FP saturation binding, high-confidence ErbB interactions; mean over replicate hits
T2 construct: the tandem protein was included in our analysis with all internal amino acids linking the domains; 6X His; thioredoxin; made in house; host or cells: E. coli BL21(DE3)pLysS
Method: (§1) (See Figure 1A) Rhodamine-labeled peptides were dissolved in assay buffer (20 mM HEPES, 100 mM KCl, 0.1% Tween-20, 5 mM DTT, pH 7.8), diluted to a concentration of 20 nM, and plated into black 384-well plates (Corning, Corning, NY) at 5 µL/well using a Perkin Elmer EP3 pipetting workstation (V&P Scientific, Inc., San Diego, CA). SH2, PTB, and thioredoxin control proteins were plated into the first column of 2 mL 96-well plates (Corning) at a concentration of 20 µM and serially diluted 1∶2 into freezing buffer (300 mM NaCl, 50 mM Na2PO4, pH 8, 20% glycerol v/v) eleven times using a Tecan Freedom EVO 100 workstation (Tecan, Männedorf, Switzerland). For the interaction assay, 5 µL of each of the twelve protein concentrations was added to the peptide-containing 384-well plates via the EP3 resulting in a protein dilution range of 0.002–10 µM and a final volume of 10 µL; peptide concentration was fixed at 10 nM. Peptide/protein samples were incubated for 20 minutes at room temperature in the dark and fluorescence polarization (FP) was measured in an Analyst GT multimode reader (Molecular Devices, Sunnyvale, CA) with excitation and emission wavelengths of 530 nm and 555 nm, respectively. Experimental values were output as millipolarization (mP) units and imported into MATLAB (The MathWorks, Inc., Natick, MA) in which equation (1) was used to determine dissociation constants (KDs) for each protein/peptide pairing by least squares nonlinear regression. [drawing 1] (1)
(§2) FP was described by the following equation: P=Iparallel-IperpendicularIparallel+Iperpendicular, where “P” denotes polarization, and “I” denotes the fluorescent intensity relative to the plane of incident light. Experimental values were output as millipolarization (mP) units and imported into MATLAB where the following equation was used to determine dissociation constants (KDs) for each protein/peptide pairing by least squares nonlinear regression:
(§3) Pobs=Pmax∙ProteinKD+Protein [picture] (1)
Peptides were initially tested for systematic plate effects across protein dilutions and nonspecific binding to thioredoxin by linear regression analysis and any effects were regressed out. The median baseline control polarization value for each plate was then subtracted from each data point to make each binding curve intersect at zero. Plates with excessive variation in baseline control polarizations on both a global and run-specific manner (Dixon’s Q test, p < 0.05) were excluded from further analysis. Outliers in each binding curve were identified and removed using an iterative procedure as follows. The residuals for each fit were used to calculate a global standard deviation of the residuals (GSDR) for each concentration of SH2 domain over all interactions, and individual data points with residuals < or > two GSDR from the global mean residual were flagged as outliers. The outlier with the largest residual from each interaction was removed and nonlinear regression was again performed. This procedure was repeated if additional outliers were identified for an interaction, discarding the interaction if the number of outliers exceeded three. […] In order to further control our false positive rate against hidden confounding variables producing binding artifacts, we sought to determine whether there was a significant relationship between the strength of an interaction and its technical replication rate at our stringent significance and filtering thresholds. We performed logistic regression on the proportion of successful replicates for each interaction query against KD for all interactions (Figure S15A). […] This is related to the observation that the majority of interactions detected by FP are tight (Figure S15B). With this logit model, we assigned a probability to each peptide-protein interaction in our data by using a binomial proportions test to compare the observed versus the expected replication rate at the particular KD of that interaction (Table S4). […]

[2] = biological target: T3, PLCG1-NC tandem SH2 domains (Homo sapiens, UniProt P19174); test: FP saturation binding assay; settings: Protein PLCG1-NC; FP saturation binding, high-confidence ErbB interactions; mean over replicate hits
T3 construct: the tandem protein was included in our analysis with all internal amino acids linking the domains; 6X His; thioredoxin; made in house; host or cells: E. coli BL21(DE3)pLysS
T3 sequence (P19174 550-756 limits assumed): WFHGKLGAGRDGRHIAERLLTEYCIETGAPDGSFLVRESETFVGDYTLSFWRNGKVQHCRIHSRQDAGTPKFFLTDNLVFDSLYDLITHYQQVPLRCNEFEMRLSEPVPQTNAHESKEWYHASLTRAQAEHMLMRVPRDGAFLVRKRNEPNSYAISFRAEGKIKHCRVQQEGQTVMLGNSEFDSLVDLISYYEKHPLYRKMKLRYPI
Method: as §1, with “Peptide/protein samples were incubated for 20 minutes at room temperature in the dark and fluorescence polarization (FP) was measured in an Analyst GT multimode reader (Molecular Devices, Sunnyvale, CA) with excitation and emission wavelengths of 530 nm and 555 nm, respectively.” left out
as §2, §3
Peptides were initially tested for systematic plate effects across protein dilutions and nonspecific binding to thioredoxin by linear regression analysis and any effects were regressed out. The median baseline control polarization value for each plate was then subtracted from each data point to make each binding curve intersect at zero. Plates with excessive variation in baseline control polarizations on both a global and run-specific manner (Dixon’s Q test, p < 0.05) were excluded from further analysis. Outliers in each binding curve were identified and removed using an iterative procedure as follows. The residuals for each fit were used to calculate a global standard deviation of the residuals (GSDR) for each concentration of SH2 domain over all interactions, and individual data points with residuals < or > two GSDR from the global mean residual were flagged as outliers. The outlier with the largest residual from each interaction was removed and nonlinear regression was again performed. This procedure was repeated if additional outliers were identified for an interaction, discarding the interaction if the number of outliers exceeded three. […] In order to further control our false positive rate against hidden confounding variables producing binding artifacts, we sought to determine whether there was a significant relationship between the strength of an interaction and its technical replication rate at our stringent significance and filtering thresholds. We performed logistic regression on the proportion of successful replicates for each interaction query against KD for all interactions (Figure S15A). […] “High-confidence” FP interactions are defined as those having 1 - P(Observed Replication Rate | Expectation) > 0.5 and that have replicated at least twice across independent FP runs. […] The compiled FP data were organized into heatmaps generated by MATLAB and relative binding strength (µM). Peptides without at least one positive hit were classified as “no interaction” if there was no homologous sequence (i.e. identical at the +1 to +4 positions relative to the phosphotyrosine) that produced a positive interaction within the ErbB receptor family.

[3] = biological target: PIK3R2-NC tandem SH2 domains (Homo sapiens, UniProt O00459); test: FP saturation binding assay
PIK3R2-NC tandem SH2 domains, sequence (O00459 330-716 limits assumed): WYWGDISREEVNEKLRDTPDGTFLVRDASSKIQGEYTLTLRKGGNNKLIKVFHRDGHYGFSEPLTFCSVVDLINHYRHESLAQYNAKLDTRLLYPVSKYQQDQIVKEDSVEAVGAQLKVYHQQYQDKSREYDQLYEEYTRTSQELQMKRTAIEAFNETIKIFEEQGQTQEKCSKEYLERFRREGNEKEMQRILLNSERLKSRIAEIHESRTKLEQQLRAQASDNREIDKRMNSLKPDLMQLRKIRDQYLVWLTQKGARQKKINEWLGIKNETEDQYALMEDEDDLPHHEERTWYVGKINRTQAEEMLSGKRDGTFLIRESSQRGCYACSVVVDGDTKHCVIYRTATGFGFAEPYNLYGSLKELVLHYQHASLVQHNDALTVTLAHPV

PIK3R3-C SH2 domain = biological target: T4, PIK3R3-C SH2 domain (Homo sapiens, UniProt Q92569); test: biochemical; type: binding; settings: Protein PIK3R3-C; FP saturation binding, high-confidence ErbB interactions; mean over replicate hits
T4 construct: thioredoxin; made in house; host or cells: E. coli BL21(DE3)pLysS

RASA1-N SH2 domain = biological target: T5, RASA1-N SH2 domain (Homo sapiens, UniProt P20936); test: FP saturation binding assay
T5 sequence (P20936 181-272 limits assumed): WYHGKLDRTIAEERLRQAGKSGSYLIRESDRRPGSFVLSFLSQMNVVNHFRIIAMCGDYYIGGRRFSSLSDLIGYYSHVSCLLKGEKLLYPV

SH2D1B SH2 domain = biological target: T6, SH2D1B SH2 domain (Homo sapiens, UniProt O14796); test: FP saturation binding assay; settings: FP saturation assay
T6 sequence (O14796 5-101 limits assumed): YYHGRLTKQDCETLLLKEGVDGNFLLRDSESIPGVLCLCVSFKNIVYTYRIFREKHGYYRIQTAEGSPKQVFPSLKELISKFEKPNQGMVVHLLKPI

SH2D2A SH2 domain, sequence (Q9NP31 95-186 limits assumed): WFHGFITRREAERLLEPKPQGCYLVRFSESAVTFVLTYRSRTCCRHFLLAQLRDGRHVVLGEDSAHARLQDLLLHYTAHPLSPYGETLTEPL

Compound: CC[C@H](C)[C@H](NC(=O)[C@H](CCCNC(=N)N)NC(=O)[C@H](Cc1c[nH]cn1)NC(=O)[C@@H](N)CC(C)C)C(=O)N[C@@H](Cc1ccc(OP(=O)(O)O)cc1)C(=O)N[C@H](C(=O)N[C@@H](Cc1c[nH]cn1)C(=O)N[C@@H](CCC(N)=O)C(=O)N[C@@H](CO)C(=O)N[C@@H](CC(=O)O)C(=O)N[C@H](C(=O)N[C@@H](Cc1c[nH]c2ccccc12)C(=O)N[C@@H](CC(=O)O)C(=O)O)C(C)C)[C@@H](C)O [ErbB1 891 13-mer] (HELM PEPTIDE1{L.H.R.I.[O=C([C@H](Cc1ccc(OP(=O)(O)O)cc1)N[*:1])[*:2]].T.H.Q.S.D.V.W.D}$$$$V2.0)
Kd (SH2D2A SH2 domain): 13.4 µM

Compound: CC[C@H](C)[C@H](NC(=O)CNC(=O)[C@H](CC(=O)O)NC(=O)[C@H](Cc1ccc(OP(=O)(O)O)cc1)NC(=O)[C@@H]1CCCN1C(=O)[C@H](CCCCN)NC(=O)[C@H](CO)NC(=O)CN)C(=O)N1CCC[C@H]1C(=O)N[C@@H](C)C(=O)N[C@@H](CO)C(=O)N[C@@H](CCC(=O)O)C(=O)N[C@@H](CC(=O)O)C(=O)O [ErbB1 915 13-mer] (HELM PEPTIDE1{G.S.K.P.[O=C([C@H](Cc1ccc(OP(=O)(O)O)cc1)N[*:1])[*:2]].D.G.I.P.A.S.E.D}$$$$V2.0)
Kd (SH2D1A SH2 domain): 14.5 µM
Kd (SH2D2A SH2 domain): 4.77 µM

Compound: CC[C@H](C)[C@H](NC(=O)[C@H](Cc1ccc(OP(=O)(O)O)cc1)NC(=O)[C@H](CCC(=O)O)NC(=O)[C@@H]1CCCN1C(=O)[C@@H](NC(=O)[C@@H]1CCCN1)C(C)C)C(=O)N[C@@H](CC(N)=O)C(=O)N[C@@H](CCC(N)=O)C(=O)N[C@@H](CO)C(=O)N[C@H](C(=O)N1CCC[C@H]1C(=O)N[C@@H](CCCCN)C(=O)N[C@@H](CC(=O)O)C(=O)O)C(C)C [ErbB1 1092 13-mer]
Kd [1]: 8.64 µM
Kd [2]: 7.58 µM
Kd [3]: 11.2 µM
Kd (SH2D2A SH2 domain): 10.9 µM

Compound: NCCCC[C@H](NC(=O)[C@@H]1CCCN1C(=O)[C@H](Cc1ccccc1)NC(=O)[C@H](Cc1ccccc1)NC(=O)[C@H](CC(=O)O)NC(=O)[C@H](CCC(N)=O)NC(=O)[C@H](CCC(N)=O)NC(=O)[C@H](Cc1ccc(OP(=O)(O)O)cc1)NC(=O)[C@H](CC(=O)O)NC(=O)[C@@H]1CCCN1C(=O)[C@H](CC(N)=O)NC(=O)[C@@H](N)CC(=O)O)C(=O)N[C@@H](CC(=O)O)C(=O)O [ErbB1 1172 13-mer] (HELM PEPTIDE1{D.N.P.D.[O=C([C@H](Cc1ccc(OP(=O)(O)O)cc1)N[*:1])[*:2]].Q.Q.D.F.F.P.K.D}$$$$V2.0)
Kd (PIK3R3-C SH2 domain): 12.6 µM
Kd [2]: 7.79 µM
Kd (RASA1-N SH2 domain): 4.17 µM

Compound: CSCC[C@H](NC(=O)[C@H](Cc1ccc(OP(=O)(O)O)cc1)NC(=O)[C@H](CCC(=O)O)NC(=O)[C@H](Cc1ccc(O)cc1)NC(=O)[C@H](CCC(=O)O)NC(=O)[C@@H](N)CCC(=O)O)C(=O)N[C@@H](CC(N)=O)C(=O)N[C@@H](CCCNC(=N)N)C(=O)N[C@@H](CCCNC(=N)N)C(=O)N[C@@H](CCCNC(=N)N)C(=O)N[C@@H](CCCNC(=N)N)C(=O)N[C@@H](Cc1c[nH]cn1)C(=O)N[C@@H](CC(=O)O)C(=O)O [ErbB3 1199 13-mer] (HELM PEPTIDE1{E.E.Y.E.[O=C([C@H](Cc1ccc(OP(=O)(O)O)cc1)N[*:1])[*:2]].M.N.R.R.R.R.H.D}$$$$V2.0)
Kd (SH2D2A SH2 domain): 13.9 µM

KD range of recruitment of SH2D1A (SHD1A [sic]) (SH2D1A SH2 domain): in the nM KD range
KD range of recruitment of SH2D1B (SH2D1B SH2 domain): in the nM KD range
Compound: FGTVpYKGIWVPEd [ErbB4 pY733]

KD range of recruitment of SH2D1A (SHD1A [sic]) (SH2D1A SH2 domain): in the nM KD range
KD range of recruitment of SH2D1B (SH2D1B SH2 domain): in the nM KD range
Compound: LDEApYVMAGVGS [ErbB2 pY772]
